Assay results: patent US9670194B2 (Calitor Sciences, LLC, priority 2013, dated 2017)

What was measured:
[1] = Compound stability in human liver microsomes; format: in vitro ADME; settings: for half-life at 5 μM: human liver microsomes 0.5 mg protein/mL, compound 5 μM, NADPH 1.0 mM, 37° C.; for CLint scaled at 5 μM: human liver microsomes, in vivo CLint extrapolated
[2] = Compound stability in rat liver microsomes; format: in vitro ADME; settings: pH 7.4; for half-life at 5 μM: rat liver microsomes 0.5 mg protein/mL, compound 5 μM, NADPH 1.0 mM, 37° C.; for CLint scaled at 5 μM: rat liver microsomes, in vivo CLint extrapolated
[3] = Pharmacokinetics after intravenous and oral administration in rats; format: in vivo, rat; settings: for clearance (CL) / AUC(0-t) / half-life / Vd: iv dosing, dose 1 mg/kg; for bioavailability / AUC(0-t) / half-life / Vd: rat, plasma; for bioavailability: iv dose 1 mg/kg, oral dose generally 5 or 10 mg/kg; for Vd: read-out: Vss
[4] = Pharmacokinetics after intravenous and oral administration in mice; format: in vivo; settings: Mouse; for CL/F / AUC(0-t) / half-life / Vd: iv dosing, dose 1 mg/kg; for bioavailability / AUC(0-t) / half-life / Vd: plasma; for bioavailability: iv dose 1 mg/kg, oral dose generally 5 or 10 mg/kg; for Vd: read-out: Vss
[5] = Pharmacokinetics after intravenous and oral administration in dogs; format: in vivo; settings: Dog; for CL/F / AUC(0-t) / half-life / Vd: iv dosing, dose 1 mg/kg; for bioavailability / AUC(0-t) / half-life / Vd: plasma; for bioavailability: iv dose 1 mg/kg, oral dose generally 10 mg/kg; for Vd: read-out: Vss
[6] = Pharmacokinetics after intravenous and oral administration in monkeys; format: in vivo; settings: Monkey; for CL/F / AUC(0-t) / half-life / Vd: iv dosing, dose 1 mg/kg; for bioavailability / AUC(0-t) / half-life / Vd: plasma; for bioavailability: iv dose 1 mg/kg, oral dose generally 10 mg/kg; for Vd: read-out: Vss
PI3K (p110α/p85α) (h) = PI3K (p110α/p85α) (h) (Homo sapiens (Human), UniProt P42336); experiment: PI3K (p110α/p85α) (h) non-radioactive HTRF kinase assay; format: biochemical
Chain of PI3K (p110α/p85α) (h) (P42336 whole entry): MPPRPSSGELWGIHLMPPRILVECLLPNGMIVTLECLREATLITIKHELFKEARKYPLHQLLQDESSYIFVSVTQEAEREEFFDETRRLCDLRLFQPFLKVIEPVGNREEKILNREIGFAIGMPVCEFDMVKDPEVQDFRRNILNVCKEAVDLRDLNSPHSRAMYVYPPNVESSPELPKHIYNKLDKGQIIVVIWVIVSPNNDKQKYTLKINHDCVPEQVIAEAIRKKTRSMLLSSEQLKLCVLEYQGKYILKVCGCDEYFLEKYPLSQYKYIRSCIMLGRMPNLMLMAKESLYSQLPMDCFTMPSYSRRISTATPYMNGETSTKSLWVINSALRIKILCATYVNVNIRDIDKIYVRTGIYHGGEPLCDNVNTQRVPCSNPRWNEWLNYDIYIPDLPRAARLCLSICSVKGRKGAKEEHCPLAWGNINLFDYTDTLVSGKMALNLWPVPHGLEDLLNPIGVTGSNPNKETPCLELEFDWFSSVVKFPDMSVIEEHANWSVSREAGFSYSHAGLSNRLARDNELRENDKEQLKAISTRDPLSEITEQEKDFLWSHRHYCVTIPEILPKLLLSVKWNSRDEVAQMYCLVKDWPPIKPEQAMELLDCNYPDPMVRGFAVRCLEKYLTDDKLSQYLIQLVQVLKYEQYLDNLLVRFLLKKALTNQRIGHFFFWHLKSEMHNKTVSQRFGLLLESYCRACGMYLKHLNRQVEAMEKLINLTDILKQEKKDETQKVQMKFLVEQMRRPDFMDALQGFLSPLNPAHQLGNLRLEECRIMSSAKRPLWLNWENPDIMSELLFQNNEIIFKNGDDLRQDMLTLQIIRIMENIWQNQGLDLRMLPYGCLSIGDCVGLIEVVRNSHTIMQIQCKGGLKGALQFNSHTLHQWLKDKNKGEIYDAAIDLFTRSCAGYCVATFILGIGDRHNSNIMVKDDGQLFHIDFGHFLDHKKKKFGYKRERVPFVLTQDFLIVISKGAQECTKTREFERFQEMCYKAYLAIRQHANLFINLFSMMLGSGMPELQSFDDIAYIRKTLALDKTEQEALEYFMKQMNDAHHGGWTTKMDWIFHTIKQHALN
Chain of PI3K (p110α/p85α) (h) (P27986 whole entry partner): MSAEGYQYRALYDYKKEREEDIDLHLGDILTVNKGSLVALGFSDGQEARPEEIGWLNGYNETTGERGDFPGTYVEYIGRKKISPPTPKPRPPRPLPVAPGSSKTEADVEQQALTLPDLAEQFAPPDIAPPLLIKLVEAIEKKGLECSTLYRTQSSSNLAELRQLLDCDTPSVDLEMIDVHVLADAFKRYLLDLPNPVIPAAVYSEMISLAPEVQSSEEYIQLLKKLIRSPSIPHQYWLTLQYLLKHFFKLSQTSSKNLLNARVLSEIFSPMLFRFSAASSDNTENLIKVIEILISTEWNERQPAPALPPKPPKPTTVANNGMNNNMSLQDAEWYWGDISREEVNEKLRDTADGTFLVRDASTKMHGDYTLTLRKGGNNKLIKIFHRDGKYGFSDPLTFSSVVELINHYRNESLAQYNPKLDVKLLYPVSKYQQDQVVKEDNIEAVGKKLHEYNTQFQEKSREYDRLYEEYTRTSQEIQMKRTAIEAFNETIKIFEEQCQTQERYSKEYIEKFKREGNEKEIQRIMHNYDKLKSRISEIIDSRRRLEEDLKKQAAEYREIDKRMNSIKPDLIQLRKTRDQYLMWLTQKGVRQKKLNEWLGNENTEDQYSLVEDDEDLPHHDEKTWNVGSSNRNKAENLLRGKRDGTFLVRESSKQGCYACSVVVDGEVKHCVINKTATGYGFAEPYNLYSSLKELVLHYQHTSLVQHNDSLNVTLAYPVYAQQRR

PI3K (p110β/p85α) (h) = PI3K (p110β/p85α) (h) (Homo sapiens (Human), UniProt P42338); experiment: PI3K (p110β/p85α) (h) non-radioactive HTRF kinase assay; format: biochemical
Chain of PI3K (p110β/p85α) (h) (P42338 whole entry): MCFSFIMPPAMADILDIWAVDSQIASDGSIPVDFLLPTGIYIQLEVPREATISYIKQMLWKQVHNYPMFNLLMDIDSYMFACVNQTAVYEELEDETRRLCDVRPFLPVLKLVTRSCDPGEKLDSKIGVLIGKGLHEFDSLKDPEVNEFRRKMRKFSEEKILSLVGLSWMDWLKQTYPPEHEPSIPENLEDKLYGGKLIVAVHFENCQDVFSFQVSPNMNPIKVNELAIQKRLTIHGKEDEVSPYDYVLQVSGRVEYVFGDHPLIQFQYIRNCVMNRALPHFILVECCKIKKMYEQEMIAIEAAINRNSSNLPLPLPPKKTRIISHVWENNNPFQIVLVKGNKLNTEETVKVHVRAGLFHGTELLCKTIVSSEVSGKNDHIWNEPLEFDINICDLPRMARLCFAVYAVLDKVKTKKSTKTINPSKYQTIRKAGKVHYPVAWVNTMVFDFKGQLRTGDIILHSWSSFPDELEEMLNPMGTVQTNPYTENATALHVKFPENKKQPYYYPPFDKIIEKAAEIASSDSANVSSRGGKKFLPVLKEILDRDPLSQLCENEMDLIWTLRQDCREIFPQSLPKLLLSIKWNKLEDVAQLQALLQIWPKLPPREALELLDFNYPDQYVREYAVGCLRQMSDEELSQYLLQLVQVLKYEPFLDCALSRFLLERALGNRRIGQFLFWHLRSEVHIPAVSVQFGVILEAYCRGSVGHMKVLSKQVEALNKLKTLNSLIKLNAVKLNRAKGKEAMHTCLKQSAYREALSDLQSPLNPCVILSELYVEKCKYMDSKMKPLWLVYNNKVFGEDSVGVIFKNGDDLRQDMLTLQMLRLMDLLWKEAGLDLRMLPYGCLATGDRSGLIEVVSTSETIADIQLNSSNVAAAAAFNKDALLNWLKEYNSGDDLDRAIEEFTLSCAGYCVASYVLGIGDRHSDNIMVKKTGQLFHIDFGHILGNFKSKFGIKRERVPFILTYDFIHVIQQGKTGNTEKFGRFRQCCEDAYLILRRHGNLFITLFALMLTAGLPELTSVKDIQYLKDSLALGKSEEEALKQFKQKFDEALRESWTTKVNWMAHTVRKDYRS
Chain of PI3K (p110β/p85α) (h) (P27986 whole entry partner): as the sequence (P27986 whole entry partner) above

PI3K (p110δ/p85α) (h) = PI3K (p110δ/p85α) (h) (Homo sapiens (Human), UniProt O00329); experiment: PI3K (p110δ/p85α) (h) non-radioactive HTRF kinase assay; format: biochemical
Chain of PI3K (p110δ/p85α) (h) (O00329 whole entry): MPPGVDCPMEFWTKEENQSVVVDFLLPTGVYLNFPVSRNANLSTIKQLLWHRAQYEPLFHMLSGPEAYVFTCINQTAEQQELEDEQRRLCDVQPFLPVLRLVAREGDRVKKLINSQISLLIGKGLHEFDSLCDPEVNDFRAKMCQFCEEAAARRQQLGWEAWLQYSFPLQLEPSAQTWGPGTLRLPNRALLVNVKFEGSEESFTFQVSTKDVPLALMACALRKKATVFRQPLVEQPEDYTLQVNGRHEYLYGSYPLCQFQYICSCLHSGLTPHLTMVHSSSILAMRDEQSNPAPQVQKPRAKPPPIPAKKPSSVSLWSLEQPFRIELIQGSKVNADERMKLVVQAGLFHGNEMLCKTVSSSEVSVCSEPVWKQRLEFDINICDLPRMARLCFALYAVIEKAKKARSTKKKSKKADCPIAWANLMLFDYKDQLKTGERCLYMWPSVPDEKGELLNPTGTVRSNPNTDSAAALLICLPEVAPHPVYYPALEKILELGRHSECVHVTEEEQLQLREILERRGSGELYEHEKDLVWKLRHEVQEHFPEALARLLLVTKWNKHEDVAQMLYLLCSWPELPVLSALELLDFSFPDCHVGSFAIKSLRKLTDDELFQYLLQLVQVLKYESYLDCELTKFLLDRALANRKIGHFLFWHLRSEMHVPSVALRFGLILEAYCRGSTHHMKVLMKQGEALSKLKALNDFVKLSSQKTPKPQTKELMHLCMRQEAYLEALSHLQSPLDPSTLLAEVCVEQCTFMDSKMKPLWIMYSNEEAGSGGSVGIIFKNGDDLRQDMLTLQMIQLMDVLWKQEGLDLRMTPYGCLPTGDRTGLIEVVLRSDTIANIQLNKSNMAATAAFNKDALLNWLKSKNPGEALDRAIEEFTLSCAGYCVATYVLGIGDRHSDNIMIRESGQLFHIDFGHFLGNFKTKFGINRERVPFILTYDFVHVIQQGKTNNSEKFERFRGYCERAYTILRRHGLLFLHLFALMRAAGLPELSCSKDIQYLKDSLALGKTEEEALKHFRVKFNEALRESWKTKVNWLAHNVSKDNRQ
Chain of PI3K (p110δ/p85α) (h) (P27986 whole entry partner): as the sequence (P27986 whole entry partner) above

PI3K (p120γ) (h) = PI3K (p120γ) (h) (Homo sapiens (Human), UniProt P48736); experiment: PI3K (p120γ) (h) non-radioactive HTRF kinase assay; format: biochemical
Chain of PI3K (p120γ) (h) (P48736 whole entry): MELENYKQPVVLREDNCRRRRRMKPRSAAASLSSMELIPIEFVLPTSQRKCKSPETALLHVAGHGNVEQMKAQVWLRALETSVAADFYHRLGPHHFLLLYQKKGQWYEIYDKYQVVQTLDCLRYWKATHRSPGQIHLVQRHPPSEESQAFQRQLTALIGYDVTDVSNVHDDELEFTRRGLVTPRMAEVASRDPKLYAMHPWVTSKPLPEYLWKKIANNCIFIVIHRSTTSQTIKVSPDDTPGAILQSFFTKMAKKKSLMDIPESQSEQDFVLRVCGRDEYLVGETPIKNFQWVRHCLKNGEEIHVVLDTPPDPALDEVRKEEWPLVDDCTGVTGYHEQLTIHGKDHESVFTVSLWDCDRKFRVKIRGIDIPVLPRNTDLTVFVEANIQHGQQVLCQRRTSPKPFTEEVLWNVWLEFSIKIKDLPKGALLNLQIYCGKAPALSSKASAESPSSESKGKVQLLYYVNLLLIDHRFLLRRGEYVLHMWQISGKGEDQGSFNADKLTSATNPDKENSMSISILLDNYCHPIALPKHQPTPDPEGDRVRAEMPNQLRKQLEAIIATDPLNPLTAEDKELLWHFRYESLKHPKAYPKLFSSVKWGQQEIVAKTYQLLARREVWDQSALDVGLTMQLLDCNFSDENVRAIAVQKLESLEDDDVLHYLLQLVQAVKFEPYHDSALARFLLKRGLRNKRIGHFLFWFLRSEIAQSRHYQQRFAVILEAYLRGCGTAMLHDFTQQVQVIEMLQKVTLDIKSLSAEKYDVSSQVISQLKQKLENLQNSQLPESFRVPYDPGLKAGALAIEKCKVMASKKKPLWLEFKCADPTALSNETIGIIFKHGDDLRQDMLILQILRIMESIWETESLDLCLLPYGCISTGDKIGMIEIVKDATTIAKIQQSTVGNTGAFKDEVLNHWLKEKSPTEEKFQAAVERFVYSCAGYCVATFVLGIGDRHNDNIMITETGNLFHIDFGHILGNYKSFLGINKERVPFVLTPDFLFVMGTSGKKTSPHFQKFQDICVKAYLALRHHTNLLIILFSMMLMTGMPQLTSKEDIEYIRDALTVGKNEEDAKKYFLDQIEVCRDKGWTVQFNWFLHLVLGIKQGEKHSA

PI3Kδ = PI3Kδ (Homo sapiens, UniProt O00329); settings: Cell, 2006, 125, 733-747; cited from earlier work
murine model of asthma = settings: ovalbumin-induced airway inflammation; FASEB, 2006, 20: 455-465; cited from earlier work
[7] = system: mouse model of rheumatoid arthritis; settings: Nature Medicine, 2005, 11, 936-943; cited from earlier work
[8] = system: model of systemic lupus erythematosis; settings: Nature Medicine, 2005, 11, 933-935; cited from earlier work

Row | half-life at 5 μM [1] | CLint scaled at 5 μM [1] | half-life at 5 μM [2] | CLint scaled at 5 μM [2] | clearance (CL) [3] | bioavailability [3] | AUC(0-t) [3] | half-life [3] | Vd [3] | CL/F [4] | bioavailability [4] | AUC(0-t) [4] | half-life [4] | Vd [4] | CL/F [5] | bioavailability [5] | IC50 (PI3K (p110α/p85α) (h)) | IC50 (PI3K (p110β/p85α) (h)) | IC50 (PI3K (p110δ/p85α) (h)) | IC50 (PI3K (p120γ) (h)) | SMILES | also measured
1 | 55.8 min | 31.1 mL/min/kg | 49.6 min | 50.1 mL/min/kg | 28.3 mL/min/kg | 111% | 596 ng·h/mL | 46.6 min | 1.69 L/kg | 18.8 mL/min/kg | 78.7% | 883 ng·h/mL | 33.6 min | 0.41 L/kg | 1.83 mL/min/kg | 76.3% | > 3000 nM | 674 nM | 8 nM | 112 nM | Cc1nnc(-c2c(N)ncnc2N[C@@H](C)c2nc3cccc(Cl)c3c(=O)n2-c2ccccc2)o1 [Ex. 64, (S)-2-(1-((6-amino-5-(5-methyl-1,3,4-oxadiazol-2-yl)pyrimidin-4-yl)amino)ethyl)-5-chloro-3-phenylquinazolin-4(3H)-one] | AUC(0-t) [5]: 10000 ng·h/mL; half-life [5]: 218 min; Vd [5]: 0.48 L/kg; CL/F [6]: 7.17 mL/min/kg; bioavailability [6]: 134%; AUC(0-t) [6]: 2340 ng·h/mL; half-life [6]: 209 min; Vd [6]: 1.4 L/kg
2 | 41 min | 42.4 mL/min/kg | 22.4 min | 111 mL/min/kg | 84.3 mL/min/kg | 46.5% | 200 ng·h/mL | 65.4 min | 6.68 L/kg |  |  |  |  |  |  |  | 1200 nM | 35 nM | 5 nM | 261 nM | Cc1noc(-c2c(N)ncnc2N[C@@H](C)c2nc3cccc(Cl)c3c(=O)n2C2CC2)n1 [Ex. 41, (S)-2-(1-((6-amino-5-(3-methyl-1,2,4-oxadiazol-5-yl)pyrimidin-4-yl)amino)-ethyl)-5-chloro-3-cyclopropylquinazolin-4(3H)-one] | 
3 | 33.1 min | 52.5 mL/min/kg | 32.6 min | 76.1 mL/min/kg | 129 mL/min/kg | 88.7% | 260 ng·h/mL | 54.2 min | 9.09 L/kg | 31.7 mL/min/kg | 33.3% | 527 ng·h/mL | 47.4 min | 0.84 L/kg | 6.17 mL/min/kg | 24.8% | 1010 nM | 154 nM | 2 nM | 37 nM | Cc1noc(-c2c(N)ncnc2N[C@@H](C)c2nc3cccc(Cl)c3c(=O)n2-c2ccccc2)n1 [Ex. 65, (S)-2-(1-((6-amino-5-(3-methyl-1,2,4-oxadiazol-5-yl)pyrimidin-4-yl)amino)ethyl)-5-chloro-3-phenylquinazolin-4(3H)-one] | AUC(0-t) [5]: 2690 ng·h/mL; half-life [5]: 636 min; Vd [5]: 4.25 L/kg; CL/F [6]: 15.3 mL/min/kg; bioavailability [6]: 10%; AUC(0-t) [6]: 1060 ng·h/mL; half-life [6]: 403 min; Vd [6]: 4.2 L/kg

More lines, now with the values behind:

Row | SMILES | half-life at 5 μM [1] | CLint scaled at 5 μM [1] | half-life at 5 μM [2] | CLint scaled at 5 μM [2] | clearance (CL) [3] | bioavailability [3] | AUC(0-t) [3] | half-life [3] | Vd [3] | CL/F [4] | bioavailability [4] | AUC(0-t) [4] | half-life [4] | Vd [4] | CL/F [5] | bioavailability [5] | IC50 (PI3K (p110α/p85α) (h)) | IC50 (PI3K (p110β/p85α) (h)) | IC50 (PI3K (p110δ/p85α) (h)) | IC50 (PI3K (p120γ) (h)) | also measured
4 | CC[C@H](Nc1ncnc(N)c1-c1nc(C)no1)c1nc2cccc(Cl)c2c(=O)n1C1CC1 [Ex. 4, (S)-2-(1-((6-amino-5-(3-methyl-1,2,4-oxadiazol-5-yl)pyrimidin-4-yl)amino)-propyl)-5-chloro-3-cyclopropylquinazolin-4(3H)-one] | 45.5 min | 38.2 mL/min/kg | 81.1 min | 30.6 mL/min/kg | 21.5 mL/min/kg | 76.1% | 726 ng·h/mL | 359 min | 10.7 L/kg | 255 mL/min/kg | 11% | 651 ng·h/mL | 88.8 min | 3.8 L/kg | 9.67 mL/min/kg | 34.1% | 1480 nM | 113 nM | 8 nM | 258 nM | AUC(0-t) [5]: 1580 ng·h/mL; half-life [5]: 684 min; Vd [5]: 6.01 L/kg; CL/F [6]: 11.6 mL/min/kg; bioavailability [6]: 55.4%; AUC(0-t) [6]: 1520 ng·h/mL; half-life [6]: 185 min; Vd [6]: 1.92 L/kg
5 | Cc1ccccc1-n1c(Cn2cnc3c(N)ncnc32)nc2cccc(C)c2c1=O [IC87114] |  |  |  |  |  |  |  |  |  |  |  |  |  |  |  |  |  |  |  |  | inhibits PI3Kδ (PI3Kδ): high nanomolar range (triple digit); inflammation and disease in a murine model of asthma (murine model of asthma): significantly ameliorate inflammation and disease
6 | O=C1NC(=O)/C(=C\c2ccc3nccnc3c2)S1 [AS 605240] |  |  |  |  |  |  |  |  |  |  |  |  |  |  |  |  |  |  |  |  | efficacy in a mouse model of rheumatoid arthritis [7]: efficacious; onset of disease in a model of systemic lupus erythematosis [8]: delay onset of disease
7 | CC[C@H](Nc1ncnc(N)c1-c1nnc(C)o1)c1nc2cccc(Cl)c2c(=O)n1C1CC1 [Ex. 2, (S)-2-(1-((6-amino-5-(5-methyl-1,3,4-oxadiazol-2-yl)pyrimidin-4-yl)amino)-propyl)-5-chloro-3-cyclopropylquinazolin-4(3H)-one] | 32.1 min | 54.1 mL/min/kg | 31.4 min | 79.1 mL/min/kg | 41.2 mL/min/kg | 63.9% | 405 ng·h/mL | 75.6 min | 3.93 L/kg |  |  |  |  |  |  |  | > 3000 nM | 168 nM | 33 nM | 1930 nM | 
8 | CC[C@H](Nc1ncnc(N)c1-c1nc(C)no1)c1nc2cccc(F)c2c(=O)n1-c1ccccc1 [Ex. 39, (S)-2-(1-((6-amino-5-(3-methyl-1,2,4-oxadiazol-5-yl)pyrimidin-4-yl)amino)-propyl)-5-fluoro-3-phenylquinazolin-4(3H)-one] | 69.3 min | 25.1 mL/min/kg | 15.6 min | 159 mL/min/kg | 51.8 mL/min/kg | 75.5% | 323 ng·h/mL | 57 min | 4.09 L/kg |  |  |  |  |  |  |  | 2750 nM | 502 nM | 11 nM | 893 nM | 
